Experimental data: the supplement of paper PMC11061612

Key:
Gemcitabine = compound: Nc1ccn([C@@H]2O[C@H](CO)[C@@H](O)C2(F)F)c(=O)n1 [Gemcitabine]; conditions: max 0.3 µM
Summary of the method: (§1)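 Cancer cell lines were seeded in 1536-well plates in 7.5 μl DMEM/F12 or RPMI with 10% FBS, held 24 hours at 37°C and 5% CO2, then dosed for 72 hours (final DMSO typically 0.2%). Viability was read by CellTiter-Glo 2.0 luminescence and scaled between blank-well and DMSO-well means. The single-agent IC50 comes from dose responses fitted to a two-parameter logistic curve with a non-linear mixed effects model.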

Gefitinib = compound: COc1cc2ncnc(Nc3ccc(F)c(Cl)c3)c2cc1OCCCN1CCOCC1 [Gefitinib]; conditions: max 10 µM
Summary of the method: as §1

5-Fluorouracil = compound: O=c1[nH]cc(F)c(=O)[nH]1 [5-Fluorouracil]; conditions: max 20 µM
Summary of the method: as §1

AZD8186 = compound: C[C@@H](Nc1cc(F)cc(F)c1)c1cc(C(=O)N(C)C)cc2c(=O)cc(N3CCOCC3)oc12 [AZD8186]
Summary of the method: as §1

AZD1390 = compound: CC(C)n1c(=O)n(C)c2cnc3cc(F)c(-c4ccc(OCCCN5CCCCC5)nc4)cc3c21 [AZD1390]; conditions: max 0.3 µM
Summary of the method: as §1

AZD2811 = compound: CCN(CCO)CCCOc1ccc2c(Nc3cc(CC(=O)Nc4cccc(F)c4)[nH]n3)ncnc2c1 [AZD2811]; conditions: max 1 µM
Summary of the method: as §1

Paclitaxel = compound: CC(=O)O[C@H]1C(=O)[C@@]2(C)[C@H]([C@H](OC(=O)c3ccccc3)[C@]3(O)C[C@H](OC(=O)[C@H](O)[C@@H](NC(=O)c4ccccc4)c4ccccc4)C(C)=C1C3(C)C)[C@]1(OC(C)=O)CO[C@@H]1C[C@@H]2O [Paclitaxel]; conditions: max 3 µM
Summary of the method: as §1

Dasatinib = compound: CC1=C(C(=CC=C1)Cl)NC(=O)C2=CN=C(S2)NC3=CC(=NC(=N3)C)N4CCN(CC4)CCO [Dasatinib]; conditions: max 2 µM
Summary of the method: as §1

AZD5363 = compound: C1CN(CCC1(C(=O)N[C@@H](CCO)C2=CC=C(C=C2)Cl)N)C3=NC=NC4=C3C=CN4 [AZD5363]; conditions: max 10 µM
Summary of the method: as §1

Trametinib = compound: CC(=O)Nc1cccc(-n2c(=O)n(C3CC3)c(=O)c3c(Nc4ccc(I)cc4F)n(C)c(=O)c(C)c32)c1 [Trametinib]; conditions: max 1 µM
Summary of the method: as §1

MK-2206 = compound: NC1(c2ccc(-c3nc4ccn5c(=O)[nH]nc5c4cc3-c3ccccc3)cc2)CCC1 [MK-2206]; conditions: max 10 µM
Summary of the method: as §1

AZD6738 = compound: C[C@@H]1COCCN1C2=NC(=NC(=C2)C3(CC3)[S@](=N)(=O)C)C4=C5C=CNC5=NC=C4 [AZD6738]; conditions: max 10 µM
Summary of the method: as §1

Selumetinib = compound: Cn1cnc2c(F)c(Nc3ccc(Br)cc3Cl)c(C(=O)NOCCO)cc21 [Selumetinib]; conditions: max 10 µM
Summary of the method: as §1

SG3199 = compound: CC1=CN2[C@@H](C1)C=NC3=CC(=C(C=C3C2=O)OC)OCCCCCOC4=C(C=C5C(=C4)N=C[C@@H]6CC(=CN6C5=O)C)OC [SG3199]; conditions: max 0.001 µM
Summary of the method: as §1

Taselisib = compound: Cc1nc(-c2cn3c(n2)-c2ccc(-c4cnn(C(C)(C)C(N)=O)c4)cc2OCC3)n(C(C)C)n1 [Taselisib]; conditions: max 10 µM
Summary of the method: as §1

AZD5153 = compound: COc1nnc2ccc(N3CCC(c4ccc(OCCN5CCN(C)C(=O)[C@H]5C)cc4)CC3)nn12 [AZD5153]; conditions: max 1 µM
Summary of the method: as §1

[1] = compound: O=C(Nc1ccc2[nH]nc(-c3ccncc3)c2c1)[C@@H]1CCN(CC(=O)N2CCN(c3ccc(-c4ncccn4)cc3)CC2)C1; conditions: max 5 µM
Summary of the method: as §1

AZD0156 = compound: CN(C)CCCOc1ccc(-c2ccc3ncc4c(c3c2)n(C2CCOCC2)c(=O)n4C)cn1 [AZD0156]; conditions: max 3 µM
Summary of the method: as §1

Savolitinib = compound: C[C@@H](c1ccc2nccn2c1)n1nnc2ncc(-c3cnn(C)c3)nc21 [Savolitinib]; conditions: max 1 µM
Summary of the method: as §1

Crizotinib = compound: C[C@@H](Oc1cc(-c2cnn(C3CCNCC3)c2)cnc1N)c1c(Cl)ccc(F)c1Cl [Crizotinib]; conditions: max 10 µM
Summary of the method: as §1

Palbociclib = compound: CC(=O)c1c(C)c2cnc(Nc3ccc(N4CCNCC4)cn3)nc2n(C2CCCC2)c1=O [Palbociclib]; conditions: max 10 µM
Summary of the method: as §1

Doxorubicin = compound: COc1cccc2c1C(=O)c1c(O)c3c(c(O)c1C2=O)C[C@@](O)(C(=O)CO)C[C@@H]3O[C@H]1C[C@H](N)[C@H](O)[C@H](C)O1 [Doxorubicin]; conditions: max 1 µM
Summary of the method: as §1

Etoposide = compound: COc1cc([C@@H]2c3cc4c(cc3[C@@H](O[C@@H]3O[C@@H]5CO[C@@H](C)O[C@H]5[C@H](O)[C@H]3O)[C@H]3COC(=O)[C@H]23)OCO4)cc(OC)c1O [Etoposide]; conditions: max 10 µM
Summary of the method: as §1

AZD5991 = compound: Cc1c2c(nn1C)CSCc1cc(n(C)n1)CSc1cc(c3ccccc3c1)OCCCc1c(C(=O)O)n(C)c3c-2c(Cl)ccc13 [AZD5991]; conditions: max 1 µM
Summary of the method: as §1

Venetoclax = compound: CC1(C)CCC(CN2CCN(c3ccc(C(=O)NS(=O)(=O)c4ccc(NCC5CCOCC5)c([N+](=O)[O-])c4)c(Oc4cnc5[nH]ccc5c4)c3)CC2)=C(c2ccc(Cl)cc2)C1 [Venetoclax]; conditions: max 1 µM
Summary of the method: as §1

Lapatinib = compound: CS(=O)(=O)CCNCc1ccc(-c2ccc3ncnc(Nc4ccc(OCc5cccc(F)c5)c(Cl)c4)c3c2)o1 [Lapatinib]; conditions: max 10 µM
Summary of the method: as §1

Alisertib = compound: COc1cc(Nc2ncc3c(n2)-c2ccc(Cl)cc2C(c2c(F)cccc2OC)=NC3)ccc1C(=O)O [Alisertib]; conditions: max 10 µM
Summary of the method: as §1

Prexasertib = compound: COc1cccc(OCCCN)c1-c1cc(Nc2cnc(C#N)cn2)n[nH]1 [Prexasertib]; conditions: max 1 µM
Summary of the method: as §1

Olaparib = compound: O=C(c1cc(Cc2n[nH]c(=O)c3ccccc23)ccc1F)N1CCN(C(=O)C2CC2)CC1 [Olaparib]; conditions: max 10 µM
Summary of the method: as §1

SRA737 = compound: N#Cc1cnc(Nc2cc(NC[C@H]3CNCCO3)c(C(F)(F)F)cn2)cn1 [SRA737]; conditions: max 10 µM
Summary of the method: as §1

AZD7648 = compound: Cc1cc2ncnn2cc1Nc1ncc2c(n1)n(C1CCOCC1)c(=O)n2C [AZD7648]; conditions: max 10 µM
Summary of the method: as §1

AZD1775 = compound: C=CCn1c(=O)c2cnc(Nc3ccc(N4CCN(C)CC4)cc3)nc2n1-c1cccc(C(C)(C)O)n1 [AZD1775]; conditions: max 3 µM
Summary of the method: as §1

Carboplatin = compound: C1CC(C1)(C(=O)[O-])C(=O)[O-].N.N.[Pt+2] [Carboplatin]; conditions: max 10 µM
Summary of the method: as §1

SN-38 = compound: CCc1c2c(nc3ccc(O)cc13)-c1cc3c(c(=O)n1C2)COC(=O)[C@]3(O)CC [SN-38]; conditions: max 0.3 µM
Summary of the method: as §1

AZD4320 = compound: CN(CC[C@H](CSC1=CC=CC=C1)NC2=C(C=C(C=C2)S(=O)(=O)NC(=O)C3=CC=C(C=C3)N4CCC(CC4)[C@H](C5=CC=CC=C5C6=CC=C(C=C6)Cl)O)S(=O)(=O)C(F)(F)F)CCO [AZD4320]; conditions: max 1 µM
Summary of the method: as §1

Capivasertib = compound: C1CN(CCC1(C(=O)N[C@@H](CCO)C2=CC=C(C=C2)Cl)N)C3=NC=NC4=C3C=CN4 [Capivasertib]; conditions: max 10 µM
Summary of the method: as §1

| Cell Line | IC50, cell viability 72 h (Gemcitabine) | IC50, cell viability 72 h (Gefitinib) | IC50, cell viability 72 h (5-Fluorouracil) | IC50, cell viability 72 h (AZD8186; max 10 µM) | IC50, cell viability 72 h (AZD1390) | IC50, cell viability 72 h (AZD2811) | IC50, cell viability 72 h (Paclitaxel) | IC50, cell viability 72 h (Dasatinib) | IC50, cell viability 72 h (AZD5363) | IC50, cell viability 72 h (Trametinib) | IC50, cell viability 72 h (MK-2206) | IC50, cell viability 72 h (AZD6738) | IC50, cell viability 72 h (Selumetinib) | IC50, cell viability 72 h (SG3199) | IC50, cell viability 72 h (Taselisib) | IC50, cell viability 72 h (AZD5153) | IC50, cell viability 72 h [1] | IC50, cell viability 72 h (AZD0156) | IC50, cell viability 72 h (Savolitinib) | IC50, cell viability 72 h (Crizotinib) | IC50, cell viability 72 h (Palbociclib) | IC50, cell viability 72 h (Doxorubicin) | IC50, cell viability 72 h (Etoposide) | IC50, cell viability 72 h (AZD5991) | IC50, cell viability 72 h (Venetoclax) | IC50, cell viability 72 h (Lapatinib) | IC50, cell viability 72 h (Alisertib) | IC50, cell viability 72 h (Prexasertib) | IC50, cell viability 72 h (Olaparib) | IC50, cell viability 72 h (SRA737) | IC50, cell viability 72 h (AZD7648) | IC50, cell viability 72 h (AZD1775) | IC50, cell viability 72 h (Carboplatin) | IC50, cell viability 72 h (SN-38) | IC50, cell viability 72 h (AZD4320) | IC50, cell viability 72 h (AZD8186; max 3 µM) | IC50, cell viability 72 h (Capivasertib) |
| --- | --- | --- | --- | --- | --- | --- | --- | --- | --- | --- | --- | --- | --- | --- | --- | --- | --- | --- | --- | --- | --- | --- | --- | --- | --- | --- | --- | --- | --- | --- | --- | --- | --- | --- | --- | --- | --- |
| SW837 (Colorectal Carcinoma) | > 300 nM | > 10 µM | > 20 µM | > 10000 nM | > 300 nM | > 1000 nM | 582 nM | > 2000 nM | > 10 µM | 300 nM | > 10 µM | > 10 µM | 9.89 µM | > 1 nM | > 10 µM | 717 nM | > 5 µM | > 3000 nM | > 1000 nM | > 10 µM | > 10 µM | > 1000 nM | > 10 µM | > 1000 nM | > 1000 nM | > 10 µM | > 10 µM | 186 nM | > 10 µM | > 10 µM | > 10 µM | 2240 nM | > 10 µM | > 300 nM | > 1000 nM |  |  |
| U251 (Low Grade Glioma) |  | > 10 µM |  |  | > 300 nM | > 1000 nM |  | > 2000 nM |  | > 1000 nM | > 10 µM | > 10 µM | > 10 µM | > 1 nM | > 10 µM | > 1000 nM |  | > 3000 nM | > 1000 nM | > 10 µM | > 10 µM | > 1000 nM |  | > 1000 nM | > 1000 nM | > 10 µM | > 10 µM | 323 nM | > 10 µM |  | > 10 µM | > 3000 nM |  | 13.1 nM | > 1000 nM | > 3000 nM | > 10 µM |
| TC-71 (Ewing's Sarcoma) |  | > 10 µM |  |  | > 300 nM | 114 nM |  | > 2000 nM |  | > 1000 nM | > 10 µM | 2.74 µM | > 10 µM | > 1 nM | 4.2 µM | 224 nM |  | > 3000 nM | > 1000 nM | 6.7 µM | > 10 µM | 812 nM |  | > 1000 nM | > 1000 nM | > 10 µM | 1.03 µM | 50.4 nM | > 10 µM |  | > 10 µM | 1310 nM |  | 2.21 nM | 278 nM | > 3000 nM | > 10 µM |
